Laboratory results as given in patent US12673945B2, “3-((8-((1H-pyrazol-4-yl)amino)imidazo[1,2-a]pyridin-3-yl)ethinyl)-n-phenylbenzamide derivative, method for preparing same, and pharmaceutical composition containing same as active ingredient for prevention or treatment of cancer” (DAEGU-GYEONGBUK MEDICAL INNOVATION FOUNDATION, priority 2020, dated 2026).

Columns and labels:
Assay in all cases: scanMAX Kinase panel (DiscoverX)
Assay type in all cases: binding
[1] = molecular target: T1, ABL1(F317I)-phosphorylated (Homo sapiens, UniProt P00519, F317I); conditions: read-out: % Cont @ 1 uM
T1 construct: purchased DiscoverX
Description: (§1) Among the example compounds of the present invention, the enzyme (kinase) selectivity of the selected compounds of Examples 1 and 4 was measured by requesting DiscoverX. At this time, the experiment was performed using a panel for scanMAX™ Kinase. The concentration of the drug treated to the enzyme was 1 μM in DMSO, and the percentage control (% control) was determined by the method shown in Equation 1 below. (Example Compound−Positive Control)/(Negative Control−Positive control)×100 [Equation 1]

[2] = molecular target: T2, ABL1(H396P)-nonphosphorylated (Homo sapiens, UniProt P00519, H396P); conditions: read-out: % Cont @ 1 uM
T2 construct: purchased DiscoverX
Description: as §1

[3] = molecular target: T3, ABL1(Y253F)-phosphorylated (Homo sapiens, UniProt P00519, Y253F); conditions: read-out: % Cont @ 1 uM
T3 construct: purchased DiscoverX scanMAX Kinase panel
Description: as §1

ABL2 = molecular target: T4, ABL2 (Homo sapiens, UniProt P42684); conditions: read-out: % Cont @ 1 uM
T4 construct: purchased DiscoverX scanMAX Kinase panel
Description: as §1

AURKC = molecular target: T5, AURKC (Homo sapiens, UniProt Q9UQB9); conditions: read-out: % Cont @ 1 uM
T5 construct: purchased DiscoverX scanMAX Kinase panel
Description: as §1

BTK = molecular target: T6, BTK (Homo sapiens, UniProt Q06187)
T6 construct: purchased DiscoverX scanMAX Kinase panel
Description: as §1

CDK11 = molecular target: T7, CDK11 (Homo sapiens, UniProt Q9BWU1)
T7 construct: purchased DiscoverX scanMAX Kinase panel
Description: as §1

CDK7 = molecular target: T8, CDK7 (Homo sapiens, UniProt P50613); conditions: read-out: % Cont @ 1 uM
T8 construct: purchased DiscoverX scanMAX Kinase panel
Description: as §1

DDR2 = molecular target: T9, DDR2 (Homo sapiens, UniProt Q16832); conditions: read-out: % Cont @ 1 uM
T9 construct: purchased DiscoverX scanMAX Kinase panel
Description: as §1

DLK = molecular target: T10, DLK (Homo sapiens, UniProt Q12852)
T10 construct: purchased DiscoverX scanMAX Kinase panel
Description: as §1

EGFR(G719S) = molecular target: T11, EGFR(G719S) (Homo sapiens, UniProt P00533, G719S)
T11 construct: purchased DiscoverX scanMAX Kinase panel
Description: as §1

[4] = molecular target: T12, EGFR(L747-E749del, A750P) (Homo sapiens, UniProt P00533, A750P/DEL747-749)
T12 construct: purchased DiscoverX scanMAX Kinase panel
Description: as §1

EGFR(L747-T751del, Sins) = molecular target: T13, EGFR(L747-T751del, Sins) (Homo sapiens, UniProt P00533, DEL747-750/T751S)
T13 construct: purchased DiscoverX scanMAX Kinase panel
Description: as §1

EPHA5 = molecular target: T14, EPHA5 (Homo sapiens, UniProt P54756)
T14 construct: purchased DiscoverX scanMAX Kinase panel
T14 sequence (P54756 25-1037): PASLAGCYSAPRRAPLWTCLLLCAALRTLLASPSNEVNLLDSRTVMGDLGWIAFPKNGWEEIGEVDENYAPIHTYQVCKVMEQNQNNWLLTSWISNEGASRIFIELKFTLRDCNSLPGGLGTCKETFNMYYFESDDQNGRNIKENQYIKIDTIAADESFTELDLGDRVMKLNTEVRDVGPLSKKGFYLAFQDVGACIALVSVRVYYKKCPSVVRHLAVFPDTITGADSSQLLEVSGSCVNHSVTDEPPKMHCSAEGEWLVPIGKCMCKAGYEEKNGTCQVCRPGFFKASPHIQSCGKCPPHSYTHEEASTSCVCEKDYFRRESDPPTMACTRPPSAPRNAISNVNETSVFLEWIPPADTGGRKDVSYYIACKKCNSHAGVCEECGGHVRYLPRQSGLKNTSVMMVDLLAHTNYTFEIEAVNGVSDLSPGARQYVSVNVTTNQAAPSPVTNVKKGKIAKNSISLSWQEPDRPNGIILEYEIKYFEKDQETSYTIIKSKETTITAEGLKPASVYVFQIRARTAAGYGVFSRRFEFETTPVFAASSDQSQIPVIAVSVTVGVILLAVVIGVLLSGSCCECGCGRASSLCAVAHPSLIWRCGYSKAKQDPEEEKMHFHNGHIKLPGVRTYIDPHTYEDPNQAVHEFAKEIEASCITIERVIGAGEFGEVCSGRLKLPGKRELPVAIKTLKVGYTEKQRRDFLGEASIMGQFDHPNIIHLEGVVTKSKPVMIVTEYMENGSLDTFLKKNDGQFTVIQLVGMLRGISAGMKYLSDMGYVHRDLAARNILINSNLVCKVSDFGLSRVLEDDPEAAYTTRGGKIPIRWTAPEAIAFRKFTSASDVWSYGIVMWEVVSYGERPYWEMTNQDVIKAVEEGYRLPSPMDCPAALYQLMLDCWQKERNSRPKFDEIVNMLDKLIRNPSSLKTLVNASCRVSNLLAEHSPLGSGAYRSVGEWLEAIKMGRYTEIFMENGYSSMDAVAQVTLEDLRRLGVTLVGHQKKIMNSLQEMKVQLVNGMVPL
Description: as §1

EPHA7 = molecular target: T15, EPHA7 (Homo sapiens, UniProt Q15375); conditions: read-out: % Cont @ 1 uM
T15 construct: purchased DiscoverX scanMAX Kinase panel
T15 sequence (Q15375 28-998): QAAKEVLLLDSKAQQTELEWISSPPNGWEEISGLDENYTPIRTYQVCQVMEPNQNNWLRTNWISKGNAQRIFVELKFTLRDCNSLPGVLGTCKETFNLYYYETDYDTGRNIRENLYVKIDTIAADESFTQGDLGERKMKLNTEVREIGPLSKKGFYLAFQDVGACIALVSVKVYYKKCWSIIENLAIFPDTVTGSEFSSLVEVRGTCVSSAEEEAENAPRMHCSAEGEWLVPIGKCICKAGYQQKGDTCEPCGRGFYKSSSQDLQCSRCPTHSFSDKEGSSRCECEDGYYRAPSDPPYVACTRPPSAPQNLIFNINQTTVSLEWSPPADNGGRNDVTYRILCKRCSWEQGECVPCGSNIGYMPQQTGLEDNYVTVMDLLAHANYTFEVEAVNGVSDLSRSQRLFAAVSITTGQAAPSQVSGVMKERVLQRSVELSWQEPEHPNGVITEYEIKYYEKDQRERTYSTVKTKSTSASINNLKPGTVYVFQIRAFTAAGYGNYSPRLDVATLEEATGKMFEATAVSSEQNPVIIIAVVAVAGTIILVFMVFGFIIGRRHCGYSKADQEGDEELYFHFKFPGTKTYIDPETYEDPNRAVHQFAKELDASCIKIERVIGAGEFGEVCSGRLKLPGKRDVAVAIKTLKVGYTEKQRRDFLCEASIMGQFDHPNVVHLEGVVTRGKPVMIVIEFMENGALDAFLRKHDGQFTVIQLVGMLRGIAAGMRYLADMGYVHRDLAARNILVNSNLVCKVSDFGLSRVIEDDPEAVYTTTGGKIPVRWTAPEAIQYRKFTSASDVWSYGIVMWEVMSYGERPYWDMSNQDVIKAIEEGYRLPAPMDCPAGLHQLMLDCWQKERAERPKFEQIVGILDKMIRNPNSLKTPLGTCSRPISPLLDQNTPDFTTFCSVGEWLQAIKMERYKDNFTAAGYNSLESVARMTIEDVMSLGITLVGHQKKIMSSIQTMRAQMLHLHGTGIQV
Description: as §1

ERK8 = molecular target: T16, ERK8 (Homo sapiens, UniProt Q8TD08); conditions: read-out: % Cont @ 1 uM
T16 construct: purchased DiscoverX scanMAX Kinase panel
T16 sequence (Q8TD08 whole entry): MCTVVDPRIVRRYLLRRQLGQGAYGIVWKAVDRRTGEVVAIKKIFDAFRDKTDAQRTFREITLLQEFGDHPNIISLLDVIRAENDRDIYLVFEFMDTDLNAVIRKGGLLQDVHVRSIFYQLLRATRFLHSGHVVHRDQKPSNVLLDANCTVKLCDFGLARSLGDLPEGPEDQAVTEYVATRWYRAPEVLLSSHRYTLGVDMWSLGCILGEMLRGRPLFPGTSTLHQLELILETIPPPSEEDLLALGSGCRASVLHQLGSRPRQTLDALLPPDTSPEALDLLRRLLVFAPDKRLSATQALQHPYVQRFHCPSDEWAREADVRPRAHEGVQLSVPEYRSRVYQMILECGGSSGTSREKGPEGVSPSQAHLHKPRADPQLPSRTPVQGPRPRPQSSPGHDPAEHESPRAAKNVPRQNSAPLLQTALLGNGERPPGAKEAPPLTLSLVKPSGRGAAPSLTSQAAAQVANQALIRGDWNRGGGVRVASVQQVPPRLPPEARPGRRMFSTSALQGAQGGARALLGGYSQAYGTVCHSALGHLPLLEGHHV
Description: as §1

FGFR3(G697C) = molecular target: T17, FGFR3(G697C) (Homo sapiens, UniProt P22607, G697C); conditions: read-out: % Cont @ 1 uM
T17 construct: purchased DiscoverX scanMAX Kinase panel
T17 sequence (P22607 23-806 G697C): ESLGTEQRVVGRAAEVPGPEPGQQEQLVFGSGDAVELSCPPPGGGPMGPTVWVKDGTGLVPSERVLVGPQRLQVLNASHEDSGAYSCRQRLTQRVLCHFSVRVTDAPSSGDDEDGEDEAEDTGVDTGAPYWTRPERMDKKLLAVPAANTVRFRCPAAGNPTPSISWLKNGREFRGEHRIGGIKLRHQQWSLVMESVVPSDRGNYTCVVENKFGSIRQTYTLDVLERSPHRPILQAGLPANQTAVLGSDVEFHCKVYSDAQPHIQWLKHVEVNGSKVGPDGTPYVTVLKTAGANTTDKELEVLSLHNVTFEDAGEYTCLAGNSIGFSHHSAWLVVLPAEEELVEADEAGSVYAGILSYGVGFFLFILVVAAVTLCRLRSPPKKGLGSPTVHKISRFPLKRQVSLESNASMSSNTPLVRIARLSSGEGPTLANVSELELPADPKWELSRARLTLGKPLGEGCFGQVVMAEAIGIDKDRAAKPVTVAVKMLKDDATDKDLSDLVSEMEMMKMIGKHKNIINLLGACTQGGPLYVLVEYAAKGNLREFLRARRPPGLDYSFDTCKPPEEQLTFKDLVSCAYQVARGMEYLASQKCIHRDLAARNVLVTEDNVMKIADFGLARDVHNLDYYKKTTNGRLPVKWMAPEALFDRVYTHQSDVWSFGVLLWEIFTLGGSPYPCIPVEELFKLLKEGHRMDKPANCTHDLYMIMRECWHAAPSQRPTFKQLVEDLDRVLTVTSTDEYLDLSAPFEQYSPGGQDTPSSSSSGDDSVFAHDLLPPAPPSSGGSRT
Description: as §1

FLT3(K663Q) = molecular target: T18, FLT3(K663Q) (Homo sapiens, UniProt P36888, K663Q); conditions: read-out: % Cont @ 1 uM
T18 construct: purchased DiscoverX scanMAX Kinase panel
Description: as §1

FYN = molecular target: T19, FYN (Homo sapiens, UniProt P06241); conditions: read-out: % Cont @ 1 uM
T19 construct: purchased DiscoverX scanMAX Kinase panel
Description: as §1

GCN2(Kin.Dom.2, S808G) = molecular target: T20, GCN2(Kin.Dom.2, S808G) (Homo sapiens, UniProt Q9P2K8, S808G); conditions: read-out: % Cont @ 1 uM
T20 construct: GCN2(Kin.Dom.2,S808G); purchased DiscoverX scanMAX Kinase panel
Description: as §1

HPK1 = molecular target: T21, HPK1 (Homo sapiens, UniProt Q92918); conditions: read-out: % Cont @ 1 uM
T21 construct: purchased DiscoverX scanMAX Kinase panel
Description: as §1

IKK-beta = molecular target: T22, IKK-beta (Homo sapiens, UniProt O14920); conditions: read-out: % Cont @ 1 uM
T22 construct: purchased DiscoverX scanMAX Kinase panel
Description: as §1

KIT(V559D, V654A) = molecular target: T23, KIT(V559D, V654A) (Homo sapiens, UniProt P10721, V559D/V654A); conditions: read-out: % Cont @ 1 uM
T23 construct: purchased DiscoverX scanMAX Kinase panel
T23 sequence (P10721 26-976 V559D/V654A): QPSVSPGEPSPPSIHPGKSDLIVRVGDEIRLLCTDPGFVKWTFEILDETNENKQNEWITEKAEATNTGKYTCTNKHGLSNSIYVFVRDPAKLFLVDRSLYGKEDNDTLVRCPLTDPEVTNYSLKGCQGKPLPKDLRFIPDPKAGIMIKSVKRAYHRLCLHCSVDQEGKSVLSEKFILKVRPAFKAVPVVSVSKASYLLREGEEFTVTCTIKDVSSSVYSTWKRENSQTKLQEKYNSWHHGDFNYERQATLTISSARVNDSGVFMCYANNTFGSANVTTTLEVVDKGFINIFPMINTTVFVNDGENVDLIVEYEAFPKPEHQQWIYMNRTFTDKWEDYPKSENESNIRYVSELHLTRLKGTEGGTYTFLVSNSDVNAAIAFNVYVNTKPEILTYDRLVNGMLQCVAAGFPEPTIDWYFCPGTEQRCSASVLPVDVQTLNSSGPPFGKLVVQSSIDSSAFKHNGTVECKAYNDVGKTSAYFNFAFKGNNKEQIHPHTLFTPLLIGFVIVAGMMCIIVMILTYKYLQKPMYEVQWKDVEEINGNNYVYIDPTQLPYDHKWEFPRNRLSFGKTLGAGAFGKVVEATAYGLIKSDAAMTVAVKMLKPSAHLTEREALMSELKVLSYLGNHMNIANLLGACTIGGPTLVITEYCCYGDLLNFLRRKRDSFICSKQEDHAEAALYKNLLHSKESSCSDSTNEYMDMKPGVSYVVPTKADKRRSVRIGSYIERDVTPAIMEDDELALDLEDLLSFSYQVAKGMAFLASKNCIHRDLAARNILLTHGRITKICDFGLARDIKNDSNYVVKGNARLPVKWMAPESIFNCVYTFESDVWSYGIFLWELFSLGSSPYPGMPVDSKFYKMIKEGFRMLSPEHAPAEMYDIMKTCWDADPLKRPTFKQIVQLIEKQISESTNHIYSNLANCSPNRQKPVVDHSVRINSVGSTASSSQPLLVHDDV
Description: as §1

MAP3K3 = molecular target: T24, MAP3K3 (Homo sapiens, UniProt Q99759); conditions: read-out: % Cont @ 1 uM
T24 construct: purchased DiscoverX scanMAX Kinase panel
Description: as §1

MAP4K2 = molecular target: T25, MAP4K2 (Homo sapiens, UniProt Q12851); conditions: read-out: % Cont @ 1 uM
T25 construct: purchased DiscoverX scanMAX Kinase panel
T25 sequence (Q12851 whole entry): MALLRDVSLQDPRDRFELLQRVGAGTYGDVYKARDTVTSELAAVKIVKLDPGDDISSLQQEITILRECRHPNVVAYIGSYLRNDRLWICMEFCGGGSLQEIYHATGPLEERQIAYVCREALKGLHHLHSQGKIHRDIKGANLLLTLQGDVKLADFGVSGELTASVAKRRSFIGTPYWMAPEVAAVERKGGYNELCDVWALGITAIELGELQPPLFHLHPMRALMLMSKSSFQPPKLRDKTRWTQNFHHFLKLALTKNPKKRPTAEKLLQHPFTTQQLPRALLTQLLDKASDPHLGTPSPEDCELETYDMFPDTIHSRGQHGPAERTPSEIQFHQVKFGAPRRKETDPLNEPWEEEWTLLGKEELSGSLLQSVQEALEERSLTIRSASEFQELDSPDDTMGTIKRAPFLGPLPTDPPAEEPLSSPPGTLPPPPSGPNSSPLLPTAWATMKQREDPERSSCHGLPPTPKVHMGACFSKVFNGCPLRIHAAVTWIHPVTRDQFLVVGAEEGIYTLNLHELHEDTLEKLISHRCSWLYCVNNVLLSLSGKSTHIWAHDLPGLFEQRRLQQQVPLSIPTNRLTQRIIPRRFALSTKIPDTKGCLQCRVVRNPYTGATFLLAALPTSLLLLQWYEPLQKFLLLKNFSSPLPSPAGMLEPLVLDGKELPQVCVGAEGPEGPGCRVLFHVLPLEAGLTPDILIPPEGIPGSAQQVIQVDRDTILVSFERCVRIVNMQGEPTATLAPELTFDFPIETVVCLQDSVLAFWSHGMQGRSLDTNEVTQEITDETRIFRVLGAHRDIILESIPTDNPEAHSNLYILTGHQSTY
Description: as §1

MAP4K5 = molecular target: T26, MAP4K5 (Homo sapiens, UniProt Q9Y4K4); conditions: read-out: % Cont @ 1 uM
T26 construct: purchased DiscoverX scanMAX Kinase panel
Description: as §1

MKNK1 = molecular target: T27, MKNK1 (Homo sapiens, UniProt Q9BUB5); conditions: read-out: % Cont @ 1 uM
T27 construct: purchased DiscoverX scanMAX Kinase panel
Description: as §1

NLK = molecular target: T28, NLK (Homo sapiens, UniProt Q9UBE8); conditions: read-out: % Cont @ 1 uM
T28 construct: purchased DiscoverX scanMAX Kinase panel
Description: as §1

RET(V804L) = molecular target: T29, RET(V804L) (Homo sapiens, UniProt P07949, V804L); conditions: read-out: % Cont @ 1 uM
T29 construct: purchased DiscoverX scanMAX Kinase panel
Description: as §1

RIPK1 = molecular target: T30, RIPK1 (Homo sapiens, UniProt Q13546); conditions: read-out: % Cont @ 1 uM
T30 construct: purchased DiscoverX scanMAX Kinase panel
Description: as §1

SIK = molecular target: T31, SIK (Homo sapiens, UniProt P57059)
T31 construct: purchased DiscoverX scanMAX Kinase panel
Description: as §1

SLK = molecular target: T32, SLK (Homo sapiens, UniProt Q9H2G2); conditions: read-out: % Cont @ 1 uM
T32 construct: purchased DiscoverX scanMAX Kinase panel
Description: as §1

SRC = molecular target: T33, SRC (Homo sapiens, UniProt P12931); conditions: read-out: % Cont @ 1 uM
T33 construct: purchased DiscoverX scanMAX Kinase panel
Description: as §1

STK36 = molecular target: T34, STK36 (Homo sapiens, UniProt Q9NRP7); conditions: read-out: % Cont @ 1 uM
T34 construct: purchased DiscoverX scanMAX Kinase panel
Description: as §1

TNK1 = molecular target: T35, TNK1 (Homo sapiens, UniProt Q13470); conditions: read-out: % Cont @ 1 uM
T35 construct: purchased DiscoverX scanMAX Kinase panel
Description: as §1

VEGFR2 = molecular target: T36, VEGFR2 (Homo sapiens, UniProt P35968); conditions: read-out: % Cont @ 1 uM
T36 construct: purchased DiscoverX scanMAX Kinase panel
Description: as §1

p38-alpha = molecular target: T37, p38-alpha (Homo sapiens, UniProt Q16539)
T37 construct: purchased DiscoverX scanMAX Kinase panel
Description: as §1

Row | SMILES | remaining binding at 1 µM [1] | remaining binding at 1 µM [2] | remaining binding at 1 µM [3] | remaining binding at 1 µM (ABL2) | remaining binding at 1 µM (AURKC) | % Cont @ 1 uM (BTK) | % Cont @ 1 uM (CDK11) | remaining binding at 1 µM (CDK7) | remaining binding at 1 µM (DDR2) | % Cont @ 1 uM (DLK) | % Cont @ 1 uM (EGFR(G719S)) | % Cont @ 1 uM [4] | % Cont @ 1 uM (EGFR(L747-T751del, Sins)) | % Cont @ 1 uM (EPHA5) | remaining binding at 1 µM (EPHA7) | remaining binding at 1 µM (ERK8) | remaining binding at 1 µM (FGFR3(G697C)) | remaining binding at 1 µM (FLT3(K663Q)) | remaining binding at 1 µM (FYN) | remaining binding at 1 µM (GCN2(Kin.Dom.2, S808G)) | further results
1 | Cc1cn(-c2cc(NC(=O)c3cc(C#Cc4cnc5c(Nc6cnn(C)c6)cccn45)c(C)cc3F)cc(C(C)(C)C#N)c2)cn1 [Example 1, N-(3-(2-cyanopropane-2-yl)-5-(4-methyl-1H-imidazol-1-yl)phenyl)-2-fluoro-4-methyl-5-((8-((1-methyl-1H-pyrazol-4-yl)amino)imidazo[1,2-a]pyridin-3-yl)ethynyl)benzamide] | 9.2% | 1.2% | 0.15% | 0.4% | 27% | 2.2% | 14.8% | 4.7% | 2% | 5.9% | 16% | 11% | 11% | 8.9% | 16% | 19% | 7.5% | 10.8% | 3% | 17% | remaining binding at 1 µM (HPK1): 2%; percent of control binding at 1 µM (IKK-beta): 26%; remaining binding at 1 µM (KIT(V559D, V654A)): 2.9%; remaining binding at 1 µM (MAP3K3): 19%; remaining binding at 1 µM (MAP4K2): 2.5%; remaining binding at 1 µM (MAP4K5): 0.95%; remaining binding at 1 µM (MKNK1): 23%; remaining binding at 1 µM (NLK): 0%; remaining binding at 1 µM (RET(V804L)): 0.6%; remaining binding at 1 µM (RIPK1): 1.6%; % Cont @ 1 uM (SIK): 2%; remaining binding at 1 µM (SLK): 1.2%; remaining binding at 1 µM (SRC): 0.1%; remaining binding at 1 µM (STK36): 20%; remaining binding at 1 µM (TNK1): 30%; remaining binding at 1 µM (VEGFR2): 6.1%; % Cont @ 1 uM (p38-alpha): 0.65%
2 | Cc1cn(-c2cc(NC(=O)c3cc(C#Cc4cnc5c(Nc6cnn(C)c6)cccn45)c(C)cc3F)cc(C(F)(F)F)c2)cn1 [Example 4, 2-fluoro-4-methyl-N-(3-(4-methyl-1H-imidazol-1-yl)-5-(trifluoromethyl)phenyl)-5-((8-((1-methyl-1H-pyrazol-4-yl)amino)imidazo[1,2-a]pyridin-3-yl)ethynyl)benzamide] | 22% | 2.9% | 5.9% | 2.9% | 39% | 38% | 55% | 71% | 6.5% | 89% | 65% | 24% | 28% | 26% | 63% | 90% | 90% | 2.8% | 32% | 64% | remaining binding at 1 µM (HPK1): 41%; percent of control binding at 1 µM (IKK-beta): 56%; remaining binding at 1 µM (KIT(V559D, V654A)): 12%; remaining binding at 1 µM (MAP3K3): 82%; remaining binding at 1 µM (MAP4K2): 70%; remaining binding at 1 µM (MAP4K5): 38%; remaining binding at 1 µM (MKNK1): 78%; remaining binding at 1 µM (NLK): 14%; remaining binding at 1 µM (RET(V804L)): 6%; remaining binding at 1 µM (RIPK1): 44%; % Cont @ 1 uM (SIK): 14%; remaining binding at 1 µM (SLK): 34%; remaining binding at 1 µM (SRC): 1.4%; remaining binding at 1 µM (STK36): 45%; remaining binding at 1 µM (TNK1): 31%; remaining binding at 1 µM (VEGFR2): 36%; % Cont @ 1 uM (p38-alpha): 49%
